According to patent publication US20250002967A1, “METHODS FOR DETECTING MICROORGANISMS BY ADDING A FLUORESCENT DYE DIRECTLY TO THE SOLID GROWTH MEDIUM” (DIAMIDEX, priority 2021, published 2025):

Tests used:
[1] = system: Candida albicans ATCC® 10231™; experiment: Enumeration of colonies using the method of the invention; assay type: cell-based; settings: C. albicans; SDA agar; 35° C.; microcolony count
[2] = system: Escherichia coli ATCC® 8739™; experiment: as above; assay type: cell-based; settings: E. coli; TSA agar; 35° C.; microcolony count
[3] = system: Aspergillus brasiliensis ATCC® 16404™; experiment: as above; assay type: cell-based; settings: A. brasiliensis; SDA agar; 35° C.; microcolony count
[4] = system: K. pneumoniae ATCC® 13883™; experiment: Enumeration of bacteria implicated in uncomplicated and complicated UTI; assay type: cell-based, Klebsiella pneumoniae; settings: black MCE membrane; for Time detection (minimal timing necessary to enumerate microcolonies): 37° C.
S. aureus ATCC® 6538™ = experiment: as above; assay type: cell-based, Staphylococcus aureus; settings: black MCE membrane
E. faecalis ATCC® 19433™ = experiment: as above; assay type: cell-based, Enterococcus faecalis; settings: black MCE membrane
E. coli ATCC®8739™ = experiment: as above; assay type: cell-based, Escherichia coli; settings: black MCE membrane; for Time detection (minimal timing necessary to enumerate microcolonies): 37° C.
[5] = system: P. mirabilis ATCC® 29906™; experiment: as above; assay type: cell-based, Proteus mirabilis; settings: black MCE membrane

SMILES: Cc1c(CC(=O)ON2C(=O)CCC2=O)c(=O)oc2cc(N)c(S(=O)(=O)O)cc12 [AF350-NHS Ester, 7-amino-3-[2-(2,5-dioxopyrrolidin-1-yl)oxy-2-oxoethyl]-4-methyl-2-oxochromene-6-sulfonic acid]
- Counting Scan at 17 h on MCE membrane with fluorochrome [1]: 9
- Counting Scan at 17 h on PVDF membrane with fluorochrome [1]: 20
- Counting Scan at 17 h on MCE membrane with fluorochrome [2]: 109
- Counting Scan at 17 h on PVDF membrane with fluorochrome [2]: 107
- Counting Scan at 17 h on MCE membrane with fluorochrome [3]: 25
- Counting Scan at 17 h on PVDF membrane with fluorochrome [3]: 19

SMILES: Cc1ccc2n1[B-](F)(F)[N+]1=C(CCCCCCCCCCCC(=O)O)C=CC1=C2 [BODIPY 500/510, 12-(2,2-difluoro-12-methyl-1-aza-3-azonia-2-boranuidatricyclo[7.3.0.03,7]dodeca-3,5,7,9,11-pentaen-4-yl)dodecanoic acid]
- Counting Scan at 17 h on PVDF membrane with fluorochrome [2]: 112

SMILES: N=C(N)c1ccc(-c2cc3ccc(C(=N)N)cc3[nH]2)cc1 [DAPI, 4′,6-diamidino-2-phenylindole]
- percentage of detected objects compared to standard procedure timing (24 h at 37° C.) ([4]; K. pneumonia, Columbia Blood): (100%)
- percentage of detected objects compared to standard procedure timing (24 h at 37° C.) ([4]; K. pneumonia, TSA): (100%)
- Time detection (minimal timing necessary to enumerate microcolonies) ([4]; K. pneumonia, Columbia Blood): 10 h
- Time detection (minimal timing necessary to enumerate microcolonies) ([4]; K. pneumonia, TSA): 10 h
- percentage of detected objects compared to standard procedure timing (24 h at 37° C.) ([4]; K. pneumoniae, MacConkey): (100%)
- Time detection (minimal timing necessary to enumerate microcolonies) ([4]; K. pneumoniae, MacConkey): 11 h
- percentage of detected objects compared to standard procedure timing (24 h at 37° C.) (S. aureus ATCC® 6538™; Columbia Blood): (100%)
- percentage of detected objects compared to standard procedure timing (24 h at 37° C.) (S. aureus ATCC® 6538™; TSA): (100%)
- Time detection (minimal timing necessary to enumerate microcolonies) (S. aureus ATCC® 6538™; TSA, 37° C.): 8 h
- percentage of detected objects compared to standard procedure timing (24 h at 37° C.) (E. faecalis ATCC® 19433™; Columbia Blood): (100%)
- percentage of detected objects compared to standard procedure timing (24 h at 37° C.) (E. faecalis ATCC® 19433™; TSA): (100%)
- Time detection (minimal timing necessary to enumerate microcolonies) (E. faecalis ATCC® 19433™; TSA, 37° C.): 7 h
- percentage of detected objects compared to standard procedure timing (24 h at 37° C.) (E. coli ATCC®8739™; Columbia Blood): (100%)
- percentage of detected objects compared to standard procedure timing (24 h at 37° C.) (E. coli ATCC®8739™; MacConkey): (98%)
- Time detection (minimal timing necessary to enumerate microcolonies) (E. coli ATCC®8739™; MacConkey): 10 h
- percentage of detected objects compared to standard procedure timing (24 h at 37° C.) (E. coli ATCC®8739™; TSA): (100%)
- Time detection (minimal timing necessary to enumerate microcolonies) (E. coli ATCC®8739™; TSA): 6 h
- percentage of detected objects compared to standard procedure timing (24 h at 37° C.) ([5]; Columbia Blood): (94%)
- percentage of detected objects compared to standard procedure timing (24 h at 37° C.) ([5]; TSA): (98%)
- Time detection (minimal timing necessary to enumerate microcolonies) ([5]; TSA, 37° C.): 10 h

SMILES: CN(C)CCNc1ccc(O)c2c1C(=O)c1c(O)ccc(NCCN(C)C)c1C2=O [DRAQ5, 1,5-bis (2-(di-methylamino)ethylamino)-4,8-dihydroxyanthracene-9,10-dione]
- Counting Scan at 17 h on MCE membrane with fluorochrome [2]: 185
- Counting Scan at 17 h on PVDF membrane with fluorochrome [2]: 162

SMILES: CCC(=O)c1ccc2cc(N(C)C)ccc2c1 [Prodan, 6-propionyl-2-dimethyaminonaphthalene]
- Counting Scan at 17 h on MCE membrane with fluorochrome [1]: 11
- Counting Scan at 17 h on PVDF membrane with fluorochrome [1]: 17
- Counting Scan at 17 h on MCE membrane with fluorochrome [2]: 118
- Counting Scan at 17 h on PVDF membrane with fluorochrome [2]: 126
- Counting Scan at 17 h on PVDF membrane with fluorochrome [3]: 6

SMILES: CC[N+]1=C(C=CC=CC=C2N(CCCCCC(=O)O)c3ccc(S(=O)(=O)O)cc3C2(C)C)C(C)(C)c2cc(S(=O)(=O)[O-])ccc21 [Sulfo-Cy5-Acid]
- Counting Scan at 17 h on MCE membrane with fluorochrome [1]: 13
- Counting Scan at 17 h on PVDF membrane with fluorochrome [1]: 13
- Counting Scan at 17 h on MCE membrane with fluorochrome [2]: 114
- Counting Scan at 17 h on PVDF membrane with fluorochrome [2]: 120
- Counting Scan at 17 h on MCE membrane with fluorochrome [3]: 25
- Counting Scan at 17 h on PVDF membrane with fluorochrome [3]: 34
